The nature of series [1]: Stability during incubation in plasma, whole blood and liver microsomes. Format: in vitro ADME. The settings on record: rat, dog, and human. Here is the method:
Absorption Systems measured the stability of 4-31 during incubation in rat, dog, and human plasma, whole blood, and liver microsomes. […] This is in strong contrast top-lap, which has been reported to be completely degraded within about 30 min in whole blood.
(Liver microsomes are a subcellular fraction often used to study metabolism.)

For series [2], the system named is DNA single strand damage, base lesions and double strand breaks. Description: DNA damage in vitro (alkaline comet assays, nuclear staining of DSB markers). Format: cell-based. To be noted: data not shown.
Series [3] is described as follows: pKa, log P and log D of 4-31 measured by Absorption Systems. It counts as physicochemical. The text has this:
A sample of compound 4-31 was delivered to Absorption Systems, a company that specializes in preclinical formulation and stability studies. […] They measured a few physical properties of 4-31, including pKa, log P and log D. Through potentiometric titrations they measured the pKa of 4-31 to be 8.0.

Another series concerns the target NQO1 (Homo sapiens, UniProt P15559). Nature of the series: NQO1 enzymatic measurements in vitro. Format: biochemical. The settings on record: 1 μM substrate. Here is the method: As further evidence that the activity of these DNQ derivatives is dependent on their ability to be reduced by NQO1, full enzymatic measurements in vitro were performed. We found a strong correlation between catalytic efficiency of substrates in vitro and their cell culture toxicity. […] This provides strong evidence that the cytotoxicity of DNQ and its derivatives are dependent primarily upon the activity of NQO1 within the cell.

A further series relates to NQO1+ cells. Nature of the series: NQO1-dependent lethality to cancer cells in vitro. Format: cell-based. The text has this:
NQO1 or PARP-1 knockdown spared the short-term lethality of DNQ-treated NQO1+ cells. BAPTA-AM (cytosolic Ca^2+ chelator) and catalase (enzymatic H2O2 scavenger) rescued DNQ-induced lethality by long-term survival assessments.

Another series concerns healthy mice. Description: in vivo. The settings on record: mouse. The source says:
Because of the difficulty of repeated tail vein injections in mice, our group is using IP administration of compound.
All of these derivatives are currently being assessed for their maximum tolerated dose (MTD) in healthy mice. Compounds are formulated in HPβCD and delivered by IP injection to two mice once daily for five days.

The next series concerns A549 NSCLC cells. Description: A549 subcutaneous xenograft model in nude mice, with or without ionizing radiation. Format: in vivo, Athymic nude mice. To be noted: 5 mg/kg by tail vein on days 1, 3, 5, 7, 9, with or without 2 grays radiation; preliminary. Here is the method: We are actively experimenting with DNQ in mouse models of cancer. The Boothman lab has completed a pilot study of DNQ in an A549 subcutaneous xenograft model in nude mice (Blanco et al., Cancer Res. 2010, 70, 3896). […] Athymic nude mice were inoculated with A549 NSCLC cells and established tumors were allowed to grow to ˜200 mm^3. Mice were assigned to one of six treatment groups—four mice per group. […] The doses of DNQ were chosen based on the observation that 10 mg/kg DNQ elicited adverse reactions in mice. The other three groups received the same DNQ regimen and also received 2 grays of ionizing radiation on each treatment day. Tumor volumes were measured over the subsequent weeks (FIG. 3).

NQO1, sequence (P15559 whole entry): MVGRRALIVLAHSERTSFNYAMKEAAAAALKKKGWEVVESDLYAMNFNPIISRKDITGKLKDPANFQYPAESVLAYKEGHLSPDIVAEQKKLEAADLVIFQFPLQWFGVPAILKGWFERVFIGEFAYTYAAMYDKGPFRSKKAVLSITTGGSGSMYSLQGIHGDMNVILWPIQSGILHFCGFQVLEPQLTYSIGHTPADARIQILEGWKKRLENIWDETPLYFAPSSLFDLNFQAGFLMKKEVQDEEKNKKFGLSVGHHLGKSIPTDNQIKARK

A word on the logP: it is a log measure of how a compound divides between an organic and an aqueous phase. Read a low logP as a more hydrophilic compound. As a reminder, the logD is the decadic logarithm of the distribution of all forms, ionised or not, between an organic phase and buffer at a given pH. A lower logD goes with lower lipophilicity. For orientation: pKa means the negative logarithm of the acid dissociation constant. Read a low pKa as a stronger acid or weaker base. Take `Cc1cc(=O)[nH]c2c1C(=O)c1c(C)cc(=O)n(CC(C)C)c1C2=O` [Compound 87]: the “stability in liver microsomes” value in series [1] (1 hour) was “no sign of degradation”. Besides, the “stability in plasma or whole blood” value in series [1] (2 hours) is “no sign of degradation”. Besides, the “DNA single strand damage and base lesions” value in series [2] (alkaline comet assays) is “extensive initial DNA single strand damage and base lesions”. Moreover, the “delay of DNA double strand break formation after initial DNA SSBs and base lesions” value in series [2] was 15 to 30 min. The lipophilicity (logP) in series [3] (octanol/0.15 M KCl, unionized compound) turned out to be 1.8. Besides, the pH-dependent lipophilicity (logD) in series [3] (pH 3.0, octanol/0.15 M KCl) is 1.78; in series [3] (pH 4.0, octanol/0.15 M KCl), 1.78; in series [3] (pH 6.8, octanol/0.15 M KCl) it was 1.76; in series [3] (pH 7.0, octanol/0.15 M KCl), 1.75; in series [3] (pH 8.0, octanol/0.15 M KCl), 1.49; in series [3] (pH 9.0, octanol/0.15 M KCl), 0.76. In addition, the pKa in series [3] (potentiometric titrations, N—H) came out at 8. The “NQO1 Initial Velocity @ 1 μM” value at NQO1 is 1900 ± 200.

`Cc1cc(=O)[nH]c2c1C(=O)c1c(C)cc(=O)n(C)c1C2=O` [DNQ, Deoxynyboquinone, reference compound] returned an LD90 in the series with NQO1+ cells (2 hour exposure of NQO1+ cells) of 50 to 250 nM. Further, in the series with NQO1+ cells (cancer cell types, NQO1-dependent), the “potency compared to β-lapachone” value was 20- to 100 fold. Moreover, the “dose that elicited adverse reactions in mice” value in the series on healthy mice came out at 10 mg/kg. Besides, the “phenotype in mice at the MTD” value in the series on healthy mice (ip) is “lethargic and unresponsive to touch”. The “rate of tumor growth” value in the series with A549 NSCLC cells is on record as “slower the rate of tumor growth relative to control”. For the same compound, on NQO1, the “NQO1 Initial Velocity @ 1 μM” value is listed as 1900 ± 100.

Values taken from patent US10285986B2, “Compounds and anti-tumor NQO1 substrates” (The Board of Trustees of the University of Illinois, priority 2011, dated 2019).
